Experimental data: ChEMBL document CHEMBL3045689, “Synthesis of novel 2-(3-aryl-sydnon-4-ylidene)-5-substituted-[1,3,4]-thiadiazolylamines and [1,3,4]-thiadiazol-2-yl-3-oxo-[1,2,4]-triazoles as antimicrobial agents” (2012)
In brackets after ≈: the same amount, converted by molar mass.

Columns and labels:
Assay type in all cases: functional
Bacillus cereus = assay: Antibacterial activity against Bacillus cereus after 18 to 24 hr by microbroth dilution method
Aspergillus niger = assay: Antifungal activity against Aspergillus niger after 18 to 24 hr by microbroth dilution method
Candida albicans = assay: Antifungal activity against Candida albicans after 18 to 24 hr by microbroth dilution method
Escherichia coli = assay: Antibacterial activity against Escherichia coli after 18 to 24 hr by microbroth dilution method

| MIC (Bacillus cereus) [µg/mL] | MIC (Aspergillus niger) [µg/mL] | MIC (Candida albicans) [µg/mL] | MIC (Escherichia coli) [µg/mL] | SMILES |
| --- | --- | --- | --- | --- |
| 62.5 (≈ 179 µM) | 62.5 (≈ 179 µM) | 125 (≈ 358 µM) | 15.6 (≈ 44.6 µM) | Cc1ccc(-n2nc(C)n(-c3nnc(-c4ccccc4)s3)c2=O)cc1 |
| 62.5 (≈ 218 µM) | 62.5 (≈ 218 µM) | 62.5 (≈ 218 µM) | 62.5 (≈ 218 µM) | Cc1ccc(-n2nc(C)n(-c3nnc(C)s3)c2=O)cc1 |
| 125 (≈ 457 µM) | 62.5 (≈ 229 µM) | 31.2 (≈ 114 µM) | 62.5 (≈ 229 µM) | Cc1nnc(-n2c(C)nn(-c3ccccc3)c2=O)s1 |
| 12.5 (≈ 38.7 µM) | – | – | 1.95 (≈ 6.03 µM) | O=C(N[C@H](CO)[C@H](O)c1ccc([N+](=O)[O-])cc1)C(Cl)Cl [CHLORAMPHENICOL] |
| 62.5 (≈ 165 µM) | 62.5 (≈ 165 µM) | 62.5 (≈ 165 µM) | 62.5 (≈ 165 µM) | COc1ccc(-[n+]2noc([O-])c2/C=N/c2nnc(-c3ccccc3)s2)cc1 |
| 125 (≈ 344 µM) | 125 (≈ 344 µM) | 3.9 (≈ 10.7 µM) | 62.5 (≈ 172 µM) | Cc1ccc(-[n+]2noc([O-])c2/C=N/c2nnc(-c3ccccc3)s2)cc1 |
| 250 (≈ 870 µM) | 125 (≈ 435 µM) | 31.2 (≈ 109 µM) | 62.5 (≈ 218 µM) | Cc1nnc(/N=C/c2c([O-])on[n+]2-c2ccccc2)s1 |
| 125 (≈ 342 µM) | 62.5 (≈ 171 µM) | 31.2 (≈ 85.5 µM) | 15.6 (≈ 42.7 µM) | COc1ccc(-n2nc(C)n(-c3nnc(-c4ccccc4)s3)c2=O)cc1 |
| 125 (≈ 394 µM) | 125 (≈ 394 µM) | 7.8 (≈ 24.6 µM) | 15.6 (≈ 49.2 µM) | COc1ccc(-[n+]2noc([O-])c2/C=N/c2nnc(C)s2)cc1 |
| 125 (≈ 373 µM) | 62.5 (≈ 186 µM) | 31.2 (≈ 93.2 µM) | 31.2 (≈ 93.2 µM) | Cc1nn(-c2ccccc2)c(=O)n1-c1nnc(-c2ccccc2)s1 |
| 125 (≈ 358 µM) | 125 (≈ 358 µM) | 31.2 (≈ 89.4 µM) | 31.2 (≈ 89.4 µM) | [O-]c1on[n+](-c2ccccc2)c1/C=N/c1nnc(-c2ccccc2)s1 |
| 15.6 (≈ 42.2 µM) | 15.6 (≈ 42.2 µM) | 7.8 (≈ 21.1 µM) | 31.2 (≈ 84.5 µM) | Cc1nn(-c2ccc(Cl)cc2)c(=O)n1-c1nnc(-c2ccccc2)s1 |
| 125 (≈ 415 µM) | 125 (≈ 415 µM) | 31.2 (≈ 104 µM) | 62.5 (≈ 207 µM) | Cc1ccc(-[n+]2noc([O-])c2/C=N/c2nnc(C)s2)cc1 |
| 62.5 (≈ 163 µM) | 31.2 (≈ 81.4 µM) | 7.8 (≈ 20.3 µM) | 31.2 (≈ 81.4 µM) | [O-]c1on[n+](-c2ccc(Cl)cc2)c1/C=N/c1nnc(-c2ccccc2)s1 |
| 31.5 (≈ 104 µM) | 7.8 (≈ 25.7 µM) | 31.2 (≈ 103 µM) | 15.6 (≈ 51.4 µM) | COc1ccc(-n2nc(C)n(-c3nnc(C)s3)c2=O)cc1 |
| 62.5 (≈ 194 µM) | 125 (≈ 389 µM) | 7.8 (≈ 24.2 µM) | 62.5 (≈ 194 µM) | Cc1nnc(/N=C/c2c([O-])on[n+]2-c2ccc(Cl)cc2)s1 |
| 15.6 (≈ 50.7 µM) | 7.8 (≈ 25.3 µM) | 7.8 (≈ 25.3 µM) | 15.6 (≈ 50.7 µM) | Cc1nnc(-n2c(C)nn(-c3ccc(Cl)cc3)c2=O)s1 |

| SMILES | MIC (Bacillus cereus) [µg/mL] | MIC (Aspergillus niger) [µg/mL] | MIC (Candida albicans) [µg/mL] | MIC (Escherichia coli) [µg/mL] |
| --- | --- | --- | --- | --- |
| CC(=O)N1CCN(c2ccc(OCC3COC(Cn4ccnc4)(c4ccc(Cl)cc4Cl)O3)cc2)CC1 (stereo not drawn) [KETOCONAZOLE] | – | 0.97 (≈ 1.83 µM) | 0.97 (≈ 1.83 µM) | – |
